Assay results reported in patent publication US20220072019A1, “INHIBITORS OF SARM1 IN COMBINATION WITH NAD+ OR A NAD+ PRECURSOR” (Disarm Therapeutics, Inc., priority 2018, published 2022).
“Also recorded” adds a separate entry of the source.

System: DRG axons
Assay: Axon degeneration assay (axotomy of mouse DRG drop cultures)
Assay type: cell-based
Description: Mouse dorsal root ganglion neurons (DRGs) were dissected out of E12.5 CD1 mice (50 ganglia per embryo) and incubated with 0.5% Trypsin solution containing 0.02% EDTA (Gibco) at 37° C. for 15 min. The cells were then triturated by gentle pipetting and washed 3 times with DRG growth medium (Neurobasal medium (Gibco) containing 2% B27 (Invitrogen), 100 ng/ml 2.5S NGF (Harland Bioproducts), […] 5-fluoro-2′deoxyuridine (Sigma), penicillin, and streptomycin). Cells were suspended in the DRG growth medium. DRG drop cultures were created by spotting 5000 cells/well into the center of each well of a 96-well tissue culture plate coated with poly-D-Lysine (0.1 mg/ml; Sigma) and laminin ([…]; Invitrogen). Cells were allowed to adhere to the plates in a humidified tissue culture incubator (5% CO2) for 15 min and then DRG growth medium was gently added ([…]).
To study the axonal protective effects of combining NR supplementation with a SARM1 inhibitor, 6 day-old mouse DRG drop cultures were preincubated with 100 μM NR for 24 hours before axotomy. 2 hours prior to axotomy, DRG cultures were treated with SARM1 inhibitors, in the continued presence of 100 μM NR. Potent SARM1 inhibitors were selected from two classes: isoquinoline and isothiazole SARM1 inhibitors. Isoquinoline SARM1 inhibitors tested included I-26 and I-86, while isothiazole SARM1 inhibitors tested included II-6 and II-32. The SARM1 inhibitors were tested using concentrations ranging from 0.1 to 33 μM.
A manual axotomy was performed at time 0 by transecting the axons of the DRG neurons with a blade. After axotomy, DRG cultures remained exposed to the to SARM1 inhibitor alone, 100 μM NR alone, or the combination of SARM1 inhibitor and NR. At either 16 or 24 hours, DRG cultures were fixed in a buffered solution containing 1% PFA and sucrose and stored at 4° C. prior to imaging. Bright-field images of DRG axons and cell bodies were collected using the 20× water immersion lens of a Phenix automated confocal microscope (PerkinElmer) and quantitation of axonal damage was performed using in-house developed scripts (Acapella, PerkinElmer). The effect of NR alone in protecting distal axons from fragmentation was determined at a concentration of 100 μM. The effect of combining 100 μM NR with varying concentrations of a SARM1 inhibitor was compared to the individual protective effects of either 100 μM of NR alone or an equivalent concentration of a SARM1 inhibitor alone.

[1] = 1.1 μM SARM1 inhibitor alone, 24 h post-axotomy
[2] = 3.3 μM SARM1 inhibitor alone, 24 h post-axotomy
[3] = 3.3 μM SARM1 inhibitor alone, 16 h post-axotomy

**Q.** `Ic1cccc2cnccc12` [I-26] was tested. Which “axonal protection (degeneration index of DRG axons)” value [1] did it give?
**A.** no statistically significant benefit

**Q.** What about the “axonal protection (degeneration index of DRG axons)” value [2] of the same compound?
**A.** more protection than with NR alone

**Q.** What about the “axonal protection (degeneration index of DRG axons)” value (SARM1 inhibitor alone, concentration not stated in the sentence (1.1 or 3.3 μM tested), 16 h post-axotomy) of the same compound?
**A.** modest amount of axonal protection

**Q.** What does the source list for `COc1cc(Br)c2ccncc2c1` [I-86]?
**A.** axonal protection (degeneration index of DRG axons) (1.1 μM SARM1 inhibitor alone, 16 h post-axotomy): NR alone provided greater protection than 1.1 μM compound I-86 alone; axonal protection (degeneration index of DRG axons) [1]: less protection than NR alone; axonal protection (degeneration index of DRG axons) [3]: greater protection than NR alone

**Q.** With `N#Cc1c(O)nsc1Nc1ccccc1C(F)(F)F` [II-6] as the compound, how does the “axonal protection (degeneration index of DRG axons)” value [3] read?
**A.** stronger protection that NR alone; also recorded: stronger protection than NR alone

**Q.** What about the “axonal protection (degeneration index of DRG axons)” value [2] of the same compound?
**A.** stronger protection than NR alone

**Q.** With `COCCn1sc(Nc2ccccc2C(F)(F)F)c(C#N)c1=O` [II-32] as the compound, how does the “axonal protection (degeneration index of DRG axons)” value (0.11 μM SARM1 inhibitor alone, 16 h post-axotomy) read?
**A.** NR alone provided greater protection than 0.11 μM and 0.33 μM of compound II-32 alone

**Q.** And the “axonal protection (degeneration index of DRG axons)” value (0.11 μM SARM1 inhibitor alone, 24 h post-axotomy)?
**A.** NR alone provided greater protection than 0.11 μM and 0.33 μM compound II-32 alone

**Q.** And the “axonal protection (degeneration index of DRG axons)” value (0.33 μM SARM1 inhibitor alone, 16 h post-axotomy)?
**A.** NR alone provided greater protection than 0.11 μM and 0.33 μM of compound II-32 alone

**Q.** What about the “axonal protection (degeneration index of DRG axons)” value (0.33 μM SARM1 inhibitor alone, 24 h post-axotomy) of the same compound?
**A.** NR alone provided greater protection than 0.11 μM and 0.33 μM compound II-32 alone

**Q.** And the “axonal protection (degeneration index of DRG axons)” value (1 μM SARM1 inhibitor alone, 16 h post-axotomy)?
**A.** greater protection than NR alone

**Q.** And the “axonal protection (degeneration index of DRG axons)” value (1 μM SARM1 inhibitor alone, 24 h post-axotomy)?
**A.** greater protection than NR alone

**Q.** With `NC(=O)c1ccc[n+]([C@@H]2O[C@H](CO)[C@@H](O)[C@H]2O)c1` [NR, 1-(β-D-ribofuranosyl)nicotinamide, reference compound] as the compound, how does the “axonal protection (degeneration index of DRG axons)” value (100 μM NR alone, 16 h post-axotomy) read?
**A.** modest amount of axonal protection

**Q.** And the “axonal protection (degeneration index of DRG axons)” value (100 μM NR alone, 24 h post-axotomy)?
**A.** modest level of protection
